According to US11497713B2, “Combination taxoid nanoemulsion with immunotherapy in cancer” (TargaGenix, Inc., priority 2017, dated 2022):

What was measured:
[1] = test system: drug-resistant cell lines expressing MDR phenotypes; conditions: cited from earlier work
[2] = test system: drug-resistant colon tumor xenografts; assay: Drug-resistant colon tumor xenografts; type: in vivo; conditions: all surviving mice
[3] = test system: CSCs purified from three human colon cancer cell lines, DLD-1, HTC-116, and HT-29; conditions: cited from earlier work

For CC/C=C\C/C=C\C/C=C\C/C=C\C/C=C\C/C=C\CCC(=O)O[C@@H](C(=O)O[C@H]1C[C@@]2(O)[C@@H](OC(=O)c3ccccc3)[C@@H]3[C@]4(OC(C)=O)CO[C@@H]4C[C@H](O)[C@@]3(C)C(=O)[C@H](OC(=O)C3CC3)C(=C1C)C2(C)C)[C@H](C=C(C)C)NC(=O)OC(C)(C)C [DHA-SBT-1214, Docosahexaenoic acid conjugate of SBT-1214], the “potency higher than those of paclitaxel and docetaxel” value [1] is given as “two-to-three”, the tumor growth delay [2] is given as over 167 days and the tumor regression [2] is given as “complete regression”. The “expression of stem related genes” value [3] was “down-regulate stem related genes”.
